# Assay results reported in ChEMBL document CHEMBL4689842, “EUbOPEN Chemogenomics Library wave 1” (2021).
# Legend:
# HEK-293T = experiment: Incucyte cell viability with HEK293T; assay type: toxicity, cell-based; conditions: human, 10 µM, compound concentration 10 uM
# Fibroblast = experiment: Incucyte cell viability with human fibroblast; assay type: toxicity, cell-based; conditions: 10 µM, compound concentration 10 uM
# [1] = 0 h, replicate number 1, timepoint 0 hours
# [2] = 6 h, replicate number 2, timepoint 6 hours
# [3] = 12 h, replicate number 2, timepoint 12 hours
# [4] = 18 h, replicate number 1, timepoint 18 hours
# [5] = 18 h, replicate number 2, timepoint 18 hours
# [6] = 24 h, replicate number 1, timepoint 24 hours
# [7] = 0 h, replicate number 2, timepoint 0 hours
# [8] = 6 h, replicate number 1, timepoint 6 hours
# [9] = 12 h, replicate number 1, timepoint 12 hours
# Note: filed as whole numbers so only -1 and 0 and 1 occur.
Compound,Growth Rate (HEK-293T; [1]),Growth Rate (HEK-293T; [2]),Growth Rate (HEK-293T; [3]),Growth Rate (HEK-293T; [4]),Growth Rate (HEK-293T; [5]),Growth Rate (HEK-293T; [6]),Growth Rate (Fibroblast; [1]),Growth Rate (Fibroblast; [7]),Growth Rate (Fibroblast; [8]),Growth Rate (Fibroblast; [2]),Growth Rate (Fibroblast; [9]),Growth Rate (Fibroblast; [3]),Growth Rate (Fibroblast; [4]),Growth Rate (Fibroblast; [6]),Growth Rate (HEK-293T; [7]),Growth Rate (HEK-293T; [8]),Growth Rate (HEK-293T; [9]),Growth Rate (Fibroblast; [5]),"Growth Rate (Fibroblast; 24 h, replicate number 2, timepoint 24 hours)"
Nc1c(C(=O)NCc2ccc(C(=O)NCCCC3CCCCC3)cc2)cnn1-c1ccccc1 [SR-318],0,0,0,1,0,0,0,1,1,0,1,0,0,0,,,,,
O=C(NCCCC1CCCCC1)c1ccc(CNC(=O)c2cnn(-c3ccccc3)c2C(F)(F)F)cc1 [SR-321],0,,,0,,0,1,,1,0,1,0,1,1,1,0,0,,
Cc1nc(-c2cn3c(n2)-c2ccc(-c4cnn(C(C)(C)C(N)=O)c4)cc2OCC3)n(C(C)C)n1 [TASELISIB],,,,0,,0,0,1,0,,0,,0,0,,0,0,,
COc1cccc([C@@H](C)NCCCc2ccccc2Cl)c1.Cl [TECALCET HYDROCHLORIDE],,,,0,,0,0,,,0,1,0,1,1,0,0,0,0,0
Cl.N#Cc1ccc2[nH]cc(CCCCN3CCN(c4ccc5oc(C(N)=O)cc5c4)CC3)c2c1 [VILAZODONE HYDROCHLORIDE],0,,,0,,0,0,,,0,1,0,0,0,,0,0,,
